{"source": "patent US12064471B2", "about": "“Compositions comprising sulforaphane or a sulforaphane precursor and a mushroom extract or powder” (NUTRAMAX LABORATORIES, INC., priority 2012, dated 2024)", "key": {"[1]": {"system": "myrosinase", "assay": "Conversion of glucoraphanin to sulforaphane by myrosinase, HPLC (Example 4)", "format": "biochemical", "conditions": "Part 2, 250 mg broccoli seed extract", "method": "A two-part experiment was conducted to further elucidate the role of ascorbic acid in modulating myrosinase activity. […] A control sample contained no ascorbic acid, and the enzymatic conversion proceeded unassisted by a co-factor. PART 1. […] PART 2. While keeping the amount of broccoli seed extract fixed at 250 mg, the concentration of ascorbic acid was varied from 0.4 mmol/Liter to 3.8 mmol/Liter."}, "[2]": {"system": "myrosinase", "assay": "Conversion of glucoraphanin to sulforaphane in Simulated Intestinal Fluid (Example 5)", "format": "biochemical, broccoli", "conditions": "0.25 to 1.00 mmol/Liter ascorbic acid, 38° C., 2 hours", "method": "Simulated Intestinal Fluid (SIF) powder, a commercially supplied concentrate closely approximating the human intestinal content in terms of composition, pH and ionic strength, was used. The experiment utilized a USP Dissolution Apparatus 2 (paddles), where into six dissolution vessels 500 mL of Simulated Intestinal Fluid was dispensed, along with 150 mg of freeze-dried broccoli sprout powder as a source of myrosinase. […] Aliquots were withdrawn every 15 minutes and assayed for sulforaphane."}}}
{"smiles": "O=C1O[C@H]([C@@H](O)CO)C(O)=C1O", "note": "[Ascorbic Acid, Ascorbic acid]", "values": [{"measurement": "Ascorbic acid concentration up to which myrosinase-promoted conversion increases apparently linearly, followed by leveling off", "setting": "[1]", "result": "about 2 mmol/L"}, {"measurement": "Sulforaphane yield versus ascorbic acid concentration", "setting": "[2]", "result": "direct correlation between larger yield of sulforaphane and higher concentrations of ascorbic acid"}]}
